Data set [1] concerns the target Synaptic vesicular amine transporter (Rattus norvegicus, UniProt Q01827). Briefly: Inhibition of [3H]dopamine uptake at VMAT2 in rat striatal synaptic vesicles by scintillation spectrometry.
Data set [2] has as its target Sodium-dependent serotonin transporter (Rattus norvegicus, UniProt P31652). Briefly: Inhibition of [3H]serotonin uptake at SERT in rat striatal synaptosomes preincubated for 5 mins followed by radioligand addition measured after 10 mins by scintillation spectrometry. The class given is subcellular, Striatum.
Data set [3] deals with Voltage-gated inwardly rectifying potassium channel KCNH2 (Homo sapiens, UniProt Q12809). Briefly: Displacement of [3H]Dofetilide from human ERG expressed in HEK293 cells after 60 mins by scintillation spectrometry. On the technique in general: Displacement assays read how much labelled ligand stays bound in the presence of the test substance.
Data set [4] has as its target Sodium-dependent dopamine transporter (Rattus norvegicus, UniProt P23977). Briefly: Inhibition of [3H]dopamine uptake at dopamine transporter in rat striatal synaptosomes preincubated for 5 mins followed by radioligand addition measured after 10 mins by scintillation spectrometry. It is filed as subcellular, Striatum.
Data set [5] can be described thus: Half life in Sprague-Dawley rat plasma. The class given is ADME, cell-free.

What is called Ki is the equilibrium dissociation constant of an inhibitor or competing ligand from its target. As usually defined, the IC50 is the midpoint of a concentration-inhibition curve. The term half-life denotes how long it takes for the measured level to halve. Read a high half-life as slow decline.

Sequence of Sodium-dependent serotonin transporter (P31652 whole entry): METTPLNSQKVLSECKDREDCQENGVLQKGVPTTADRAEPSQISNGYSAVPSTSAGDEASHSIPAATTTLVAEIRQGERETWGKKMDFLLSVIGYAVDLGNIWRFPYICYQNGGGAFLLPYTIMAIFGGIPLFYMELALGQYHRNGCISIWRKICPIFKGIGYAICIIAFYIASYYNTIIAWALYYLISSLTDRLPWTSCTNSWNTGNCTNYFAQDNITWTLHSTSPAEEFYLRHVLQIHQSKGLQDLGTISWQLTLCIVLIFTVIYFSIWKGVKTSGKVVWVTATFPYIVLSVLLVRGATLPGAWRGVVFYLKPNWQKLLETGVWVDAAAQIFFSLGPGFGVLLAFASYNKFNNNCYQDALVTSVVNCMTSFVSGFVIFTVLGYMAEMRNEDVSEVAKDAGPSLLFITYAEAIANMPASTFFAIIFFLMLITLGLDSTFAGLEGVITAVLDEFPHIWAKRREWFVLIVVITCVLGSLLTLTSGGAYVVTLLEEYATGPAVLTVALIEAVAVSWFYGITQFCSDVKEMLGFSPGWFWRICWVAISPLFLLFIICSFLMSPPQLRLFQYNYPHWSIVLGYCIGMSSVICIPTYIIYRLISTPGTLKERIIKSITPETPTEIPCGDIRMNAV
Sequence of Synaptic vesicular amine transporter (Q01827 whole entry): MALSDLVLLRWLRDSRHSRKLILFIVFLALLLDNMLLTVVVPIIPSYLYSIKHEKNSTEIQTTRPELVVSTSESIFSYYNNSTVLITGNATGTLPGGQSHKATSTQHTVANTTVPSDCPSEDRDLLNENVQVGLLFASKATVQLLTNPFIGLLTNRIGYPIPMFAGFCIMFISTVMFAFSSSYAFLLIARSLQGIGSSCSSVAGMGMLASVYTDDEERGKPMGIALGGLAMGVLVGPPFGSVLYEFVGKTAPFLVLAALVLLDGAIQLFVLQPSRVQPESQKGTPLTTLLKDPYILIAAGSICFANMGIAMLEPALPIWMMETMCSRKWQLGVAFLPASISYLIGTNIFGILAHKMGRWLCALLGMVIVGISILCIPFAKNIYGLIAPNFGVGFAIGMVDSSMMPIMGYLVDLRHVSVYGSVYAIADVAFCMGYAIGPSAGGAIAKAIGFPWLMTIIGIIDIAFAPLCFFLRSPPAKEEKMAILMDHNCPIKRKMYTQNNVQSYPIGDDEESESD
Sequence of Sodium-dependent dopamine transporter (P23977 whole entry): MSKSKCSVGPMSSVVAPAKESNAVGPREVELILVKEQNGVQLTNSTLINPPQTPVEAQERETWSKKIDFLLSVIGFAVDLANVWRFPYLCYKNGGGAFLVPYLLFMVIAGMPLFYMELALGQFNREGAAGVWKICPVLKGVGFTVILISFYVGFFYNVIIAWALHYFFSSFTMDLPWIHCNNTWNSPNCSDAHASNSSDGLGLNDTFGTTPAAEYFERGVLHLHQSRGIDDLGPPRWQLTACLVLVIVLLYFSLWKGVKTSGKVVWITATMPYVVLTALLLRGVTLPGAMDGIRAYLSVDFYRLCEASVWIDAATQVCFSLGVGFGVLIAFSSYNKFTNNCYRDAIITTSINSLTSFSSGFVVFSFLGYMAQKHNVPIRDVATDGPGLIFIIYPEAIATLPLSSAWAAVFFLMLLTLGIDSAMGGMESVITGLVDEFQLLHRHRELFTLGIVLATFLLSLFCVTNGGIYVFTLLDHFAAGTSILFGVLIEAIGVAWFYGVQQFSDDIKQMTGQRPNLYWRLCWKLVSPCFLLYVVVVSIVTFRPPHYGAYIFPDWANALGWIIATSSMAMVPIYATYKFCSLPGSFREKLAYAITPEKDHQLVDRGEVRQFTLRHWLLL
Sequence of Voltage-gated inwardly rectifying potassium channel KCNH2 (Q12809 whole entry): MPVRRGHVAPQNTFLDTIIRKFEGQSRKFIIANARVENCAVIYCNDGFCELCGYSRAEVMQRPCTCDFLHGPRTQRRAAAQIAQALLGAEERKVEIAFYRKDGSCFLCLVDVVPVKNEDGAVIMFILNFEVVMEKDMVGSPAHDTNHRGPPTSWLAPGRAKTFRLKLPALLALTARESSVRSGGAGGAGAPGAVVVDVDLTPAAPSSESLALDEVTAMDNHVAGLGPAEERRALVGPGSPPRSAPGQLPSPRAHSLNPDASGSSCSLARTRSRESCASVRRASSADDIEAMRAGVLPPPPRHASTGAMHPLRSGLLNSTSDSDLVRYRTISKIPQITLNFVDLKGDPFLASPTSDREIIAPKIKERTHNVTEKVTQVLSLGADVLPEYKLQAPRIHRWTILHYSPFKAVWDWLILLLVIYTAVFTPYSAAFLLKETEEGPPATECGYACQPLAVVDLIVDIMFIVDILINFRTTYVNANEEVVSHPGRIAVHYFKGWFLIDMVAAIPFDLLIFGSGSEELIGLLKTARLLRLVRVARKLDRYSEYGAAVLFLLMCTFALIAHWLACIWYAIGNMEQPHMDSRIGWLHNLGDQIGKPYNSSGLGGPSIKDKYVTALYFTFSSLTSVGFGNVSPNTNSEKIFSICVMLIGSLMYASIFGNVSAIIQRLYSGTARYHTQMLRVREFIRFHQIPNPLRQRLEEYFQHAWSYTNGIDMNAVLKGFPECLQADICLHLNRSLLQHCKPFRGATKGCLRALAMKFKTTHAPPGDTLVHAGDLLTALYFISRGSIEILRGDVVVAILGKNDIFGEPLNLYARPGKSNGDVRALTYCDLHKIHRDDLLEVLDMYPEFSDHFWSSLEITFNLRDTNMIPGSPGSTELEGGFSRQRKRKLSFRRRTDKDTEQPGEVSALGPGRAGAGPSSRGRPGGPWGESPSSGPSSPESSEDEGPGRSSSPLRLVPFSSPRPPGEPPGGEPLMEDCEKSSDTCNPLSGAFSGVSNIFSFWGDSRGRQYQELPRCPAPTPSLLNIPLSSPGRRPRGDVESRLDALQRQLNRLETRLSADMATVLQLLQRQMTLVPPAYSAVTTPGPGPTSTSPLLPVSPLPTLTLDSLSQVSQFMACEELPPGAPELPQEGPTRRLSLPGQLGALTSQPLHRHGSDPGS

Regarding `COc1ccccc1CCN1CCC(CCc2cccc(OCCF)c2)CC1`, the values for the Ki in data set [1] and in data set [2] were 61 nM and 470 nM, respectively. This compound showed an IC50 in data set [3] of 800 nM.
As for `FCCOc1ccccc1CCN1CCN(CCc2ccc(F)cc2)CC1`, the values for the Ki in data set [1] and in data set [2] were 24 nM and 300 nM, respectively.
Regarding `FCCOc1ccc(CCC2CCN(CCc3ccccc3Cl)CC2)cc1`, the Ki in data set [1] worked out at 190 nM; in data set [2], 3620 nM.
Compound `FCCOc1cccc(CCN2CCC(CCc3ccccc3)CC2)c1` displayed a Ki in data set [1] of 24 nM.
Turning to `FCCOc1ccccc1CCN1CCN(CCc2ccccc2Cl)CC1`, the Ki in data set [1] was found to be 14 nM; in data set [2], 72 nM. This compound gave an IC50 in data set [3] of 850 nM.
As to `FCCOc1cccc(CCC2CCN(CCc3ccccc3)CC2)c1`, the Ki in data set [1] was found to be 53 nM; in data set [4], 3140 nM.
As to `FCCOc1ccc(CCN2CCC(CCc3ccccc3)CC2)cc1`, the Ki worked out at 150 nM in data set [1], 1060 nM in data set [4] and 390 nM in data set [2]. The same compound displayed an IC50 in data set [3] of 350 nM.
For the compound `COc1ccc(CCN2CCC(CCc3cccc(OCCF)c3)CC2)cc1`, the figures for the Ki in data set [1] and in data set [2] were 67 nM and 660 nM, respectively. Also, in data set [3], the IC50 amounted to 280 nM.
In data set [5], `CN1[C@@H](CC(=O)c2ccccc2)CCC[C@H]1C[C@H](O)c1ccccc1` [LOBELINE] gave a half-life of 50 min.
On to `COc1ccccc1CCN1CCC(CCc2ccccc2OCCF)CC1`, for which the Ki in data set [1] came to 25 nM.
For `FCCOc1ccc(CCN2CCN(CCc3ccccc3Cl)CC2)cc1`, the results for the Ki in data set [1] and in data set [2] were 450 nM and 480 nM, respectively. This compound also displayed an IC50 in data set [3] of 1400 nM.
For `FCCOc1cccc(CCN2CCN(CCc3ccccc3)CC2)c1`, the Ki in data set [1] is 73 nM.
Turning to `FCCOc1ccc(CCN2CCN(CCc3ccccc3)CC2)cc1`, the figures for the Ki in data set [1], in data set [4] and in data set [2] were 600 nM, 2740 nM and 3370 nM, respectively. Further, the IC50 in data set [3] was determined as 3050 nM.
In data set [1], `FCCOc1ccccc1CCC1CCN(CCc2ccc(F)cc2)CC1` yielded an inhibition constant Ki of 27 nM.
With `COc1ccc(CCN2CCC(CCc3ccccc3OCCF)CC2)cc1`, the Ki in data set [1] was determined as 73 nM. In addition, the IC50 in data set [3] is 350 nM.
In the case of `FCCOc1ccccc1CCC1CCN(CCc2ccccc2)CC1`, the inhibition constant Ki in data set [1] stood at 35 nM.

Values taken from ChEMBL document CHEMBL4184167, “Fluoroethoxy-1,4-diphenethylpiperidine and piperazine derivatives: Potent and selective inhibitors of [3H]dopamine uptake at the vesicular monoamine transporter-2” (Bioorg Med Chem Lett, 2017).
